Experimental data taken from patent US20100137266A1, “TREATMENT OF INSULIN RESISTANCE AND DISORDERS ASSOCIATED THEREWITH” (UNIVERSITETET I OSLO, priority 2006, published 2010).

Experiments:
[1] = test system: rat FAS luciferase reporter; assay: Transfection and luciferase assay with rat FAS promoter reporter in COS-1 cells co-transfected with RXRα and LXRα; assay type: cell-based; conditions: COS-1 cells with RXRα and LXRα expression vectors; 1 μM T0901317 or 10 μM 22-HC for 48 h; vs unstimulated control cells
Method: FIG. 6. […] COS-1 cells were transient transfected with rat FAS luciferase reporter and co-transfected with β-galactosidase (internal control), RXRα and LXRα expression vectors. Medium was supplied with vehicle (0.1% DMSO), 1 μM T0901317, 10 μM 22-R-hydroxycholesterol (22-R-HC) or 10 μM 22-S— hydroxycholesterol (22-S-HC) for 48 h. The results represent one of two experiments performed with triplicate cell culture dishes and are presented as means±SD.
Transfection and Luciferase Assay. Monkey kidney COS-1 cells (ATCC no. CRL 1650) were grown in DMEM supplemented with 10% FBS. For reporter gene assays, COS-1 cells were transiently transfected with luciferase reporter containing sequences from −1594 to +67 bp of the rat FAS promoter (5 μg), with a known LXR responsive element (LXRE) located at −669 to −655 (kindly provided by Peter Tontonoz, Howard Hughes Medical Institute, California, USA) and co-transfected with pCMX-RXRα, pCMX-LXRα, (1 μg each), and pSV-β-galactosidase (3 μg) expression vectors with calcium phosphate precipitation. Total DNA concentration was adjusted to 12 μg with corresponding empty expression vectors and pGL3-basic vector. After 3 h of transfection, medium containing appropriate reagents was added for 48 h. Cells were harvested in 100 μl lysis buffer, and luciferase activities were measured in a TD-20/20 Luminometer (Turner Designs, Sunnyvale, Calif.) using the dual luciferase assay kit (Promega). Relative luciferase activity was normalized against β-galactosidase activity.

human myotubes = assay: Glucose uptake (2-deoxy-D-glucose) in myotubes; assay type: cell-based; conditions: for basal glucose uptake, increase: myotubes from young, healthy subjects, exposure for 4 days, 1 μmol/l T0901317 or 10 μmol/l 22-HC
Source text: FIG. 7. Glucose transport is increased in human myotubes after chronic 22-S-HC treatment. Human myoblasts were allowed to differentiate for 2 days, and then exposed to 1 μmol/1 T0901317, 10 μmol/[…]) or 1, 2, 5 and 10 μmol/1 22-S-HC(S-HC) for 4 days. […] (A) Present means for glucose uptake±SEM (n=4). Basal level for control are 1.20±0.24 nmol/mg cell protein. (B) A representative dose-response curve for glucose uptake after 1, 2, 5 and 10 μmol/l 22-S-HC treatment (n=3). (C) Total RNA were reversely transcribed and analyzed by Real-Time RT-PCR. Results are normalized to levels of 36B4 and present means±SEM (n=4-6). Relative expressions of GLUT1, GLUT3, GLUT4, and hexokinase (HK)II, ^ap<0.05 vs control, ^dp<0.05 vs T0901317. Glucose Uptake. Skeletal biopsies were taken from M.vastus lateralis of healthy human donors and human myoblasts were allowed to differentiate for 4 days. On day 4, myotubes were exposed to T0901317 or 22-R-HC or 22-S-HC for another 4 days. […] Cells were solubilized by addition of 500 μl 0.1 mol/l NaOH. An aliquot (50 μl) was removed for protein determination (Bradford 1976) 300 μl was counted by liquid scintillation ([…] and Beck-Nielsen 2004).

LXRα = biological target: T1, LXRα (Homo sapiens, UniProt Q13133); conditions: Forman et al.; cited from earlier work
T1 construct: host or cells: CV-1 cells (fibroblasts)
T1 sequence (Q13133 1-447): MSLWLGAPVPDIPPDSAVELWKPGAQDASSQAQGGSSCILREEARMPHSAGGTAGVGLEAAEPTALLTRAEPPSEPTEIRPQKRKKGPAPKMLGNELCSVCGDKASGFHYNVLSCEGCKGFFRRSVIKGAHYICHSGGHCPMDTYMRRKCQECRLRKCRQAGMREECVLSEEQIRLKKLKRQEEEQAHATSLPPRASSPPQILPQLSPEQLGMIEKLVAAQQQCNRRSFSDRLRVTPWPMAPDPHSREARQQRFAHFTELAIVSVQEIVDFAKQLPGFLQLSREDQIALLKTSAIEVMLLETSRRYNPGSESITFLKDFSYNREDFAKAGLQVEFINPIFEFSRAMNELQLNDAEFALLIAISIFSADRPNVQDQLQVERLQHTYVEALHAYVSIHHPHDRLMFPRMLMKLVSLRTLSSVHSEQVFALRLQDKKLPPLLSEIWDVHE

CC(C)CC[C@@H](O)[C@@H](C)[C@H]1CC[C@H]2[C@@H]3CC=C4C[C@@H](O)CC[C@]4(C)[C@H]3CC[C@]12C [Example 22-R-HC, 22-R-hydroxycholesterol]
rat FAS promoter luciferase reporter activity [1]: unable to regulate the FAS gene promoter | basal glucose uptake, increase (human myotubes): tended to increase | glucose uptake after pre-treatment of myotubes (summary statement) (human myotubes): only a slight or no significant effect | regulation of LXRα in fibroblasts (CV-1 cells) (LXRα): positively regulates

CC(C)CC[C@H](O)[C@@H](C)[C@H]1CC[C@H]2[C@@H]3CC=C4C[C@@H](O)CC[C@]4(C)[C@H]3CC[C@]12C [Example 22-S-HC, 22-S-hydroxycholesterol]
rat FAS promoter luciferase reporter activity [1]: seemed to reduce reporter activity | basal glucose uptake, dose response (human myotubes; 0, 1.0, 2.0, 5.0 and 10 μmol/l for 4 days): increased in a dose—dependent manner | basal glucose uptake, increase (human myotubes): 2 fold | glucose uptake after pre-treatment of myotubes (summary statement) (human myotubes): marked stimulation | regulation of LXRα in fibroblasts (CV-1 cells) (LXRα): inactive

O=S(=O)(c1ccccc1)N(CC(F)(F)F)c1ccc(C(O)(C(F)(F)F)C(F)(F)F)cc1 [Example T0901317]
rat FAS promoter luciferase reporter activity [1]: 6.5 fold | basal glucose uptake, increase (human myotubes): no effect | glucose uptake after pre-treatment of myotubes (summary statement) (human myotubes): only a slight or no significant effect
